Assay [1] deals with T1, Nuclear receptor ROR-gamma (Homo sapiens, UniProt P51449).
T1 sequence (P51449 whole entry): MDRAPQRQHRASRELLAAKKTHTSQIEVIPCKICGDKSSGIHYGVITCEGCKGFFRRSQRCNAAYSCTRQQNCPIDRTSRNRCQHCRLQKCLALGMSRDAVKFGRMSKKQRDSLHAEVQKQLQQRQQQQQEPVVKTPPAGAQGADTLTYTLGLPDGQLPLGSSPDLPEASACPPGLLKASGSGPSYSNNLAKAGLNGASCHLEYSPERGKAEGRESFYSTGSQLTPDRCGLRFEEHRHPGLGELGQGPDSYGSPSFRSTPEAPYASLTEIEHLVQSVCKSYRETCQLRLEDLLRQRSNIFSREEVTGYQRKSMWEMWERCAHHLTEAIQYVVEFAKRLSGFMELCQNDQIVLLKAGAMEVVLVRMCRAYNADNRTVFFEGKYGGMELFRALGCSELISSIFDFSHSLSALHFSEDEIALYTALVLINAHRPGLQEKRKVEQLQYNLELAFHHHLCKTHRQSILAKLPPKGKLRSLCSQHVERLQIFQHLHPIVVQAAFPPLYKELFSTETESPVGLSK
Kind of assay: Antagonist activity at human His6-tagged RORgamma ligand binding domain (262 to 507 aa) assessed as inhibition of SRC1-4 co-activator peptide recruitment by luminescence-based AlphaScreen assay.

The target of assay [2] is T1, Nuclear receptor ROR-gamma. The experiment in a line: Antagonist activity at full-length RORgamma (unknown origin) expressed in 293T cells after 24 hrs by luciferase reporter gene assay. Format: cell-based.
In assay [3] the target is T1, Nuclear receptor ROR-gamma. The experiment in a line: Antagonist activity at Gal4-fused RORgamma (unknown origin) expressed in 293T cells after 24 hrs by luciferase reporter gene assay. The assay is classed as cell-based.

On to `NC(=O)c1ccc(NC(=O)c2cccc(COc3ccc(Cl)cc3)c2)cc1`, for which the IC50 in assay [1] was found to be 168 µM.
Regarding `CCN1C(=O)c2cccc3c(S(=O)(=O)NCc4ccc(OC)cc4)ccc1c23`, the IC50 in assay [1] came to 174 µM.
For the compound `CCN1C(=O)c2cccc3c(S(=O)(=O)NCC4CCN(C(C)=O)CC4)ccc1c23`, the results for the IC50 in assay [2] and in assay [3] were 0.59 µM and 6.03 µM, respectively.
Regarding `CCN1C(=O)c2cccc3c(S(=O)(=O)Nc4ccccc4C(=O)c4ccccc4)ccc1c23`, the IC50 in assay [1] came out at 156 µM.
In the case of `CCN1C(=O)c2cccc3c(S(=O)(=O)N(C(=O)c4ccncc4)c4ccc(OC)cc4)ccc1c23`, the half-maximal inhibitory concentration (IC50) is 0.08 µM in assay [2], 6.47 µM in assay [1] and 0.09 µM in assay [3].
Regarding `C=CCn1c(COc2ccc(Cl)cc2)nnc1SCC(=O)N/N=C/c1cccc(O)c1`, the 50% inhibitory concentration (IC50) in assay [1] is 56.6 µM.
Turning to `C=CCn1c(CCCN2C(=O)c3cccc4cccc(c34)C2=O)nnc1SCC(=O)Nc1ccc(S(N)(=O)=O)cc1`, the IC50 in assay [1] was determined as 142 µM.

The record behind these values is ChEMBL document CHEMBL3232726, “Discovery of 2-oxo-1,2-dihydrobenzo[cd]indole-6-sulfonamide derivatives as new RORγ inhibitors using virtual screening, synthesis and biological evaluation” (Eur J Med Chem, 2014).
